Tests used:
Cyclooxygenase-2 (COX-2) = biological target: T1, Cyclooxygenase-2 (COX-2) (Ovis aries, UniProt P79208); test: Inhibition of cyclooxygenase-2: COX-2 from sheep placenta, arachidonic acid, PGE2 by ELISA; assay type: biochemical; conditions: arachidonic acid 5 μm
T1 construct: COX-2 (from sheep placenta) is preincubated with test substance for 10 min at 4° C; from tissue; host or cells: sheep placenta
T1 sequence (P79208 17-603): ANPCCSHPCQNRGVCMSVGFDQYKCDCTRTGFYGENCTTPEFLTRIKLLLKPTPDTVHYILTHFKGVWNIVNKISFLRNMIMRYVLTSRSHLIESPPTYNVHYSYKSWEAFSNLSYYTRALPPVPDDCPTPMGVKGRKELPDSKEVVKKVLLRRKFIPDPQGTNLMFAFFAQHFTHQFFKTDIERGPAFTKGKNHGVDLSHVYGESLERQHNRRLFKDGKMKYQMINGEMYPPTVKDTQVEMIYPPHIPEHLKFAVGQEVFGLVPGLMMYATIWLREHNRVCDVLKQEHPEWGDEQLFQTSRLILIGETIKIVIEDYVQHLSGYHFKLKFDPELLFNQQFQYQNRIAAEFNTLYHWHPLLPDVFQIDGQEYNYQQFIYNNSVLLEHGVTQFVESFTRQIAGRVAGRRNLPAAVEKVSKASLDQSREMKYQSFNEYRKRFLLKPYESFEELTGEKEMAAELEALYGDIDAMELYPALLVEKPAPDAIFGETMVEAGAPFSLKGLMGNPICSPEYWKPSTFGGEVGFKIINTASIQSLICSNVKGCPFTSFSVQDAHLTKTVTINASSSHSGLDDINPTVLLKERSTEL
Experimental: Test System for Determining the Inhibition of Cyclooxygenase-2 (COX-2)
COX-2 (from sheep placenta) is preincubated with test substance for 10 min at 4° C., then stimulated with arachidonic acid (5 μm) at 25° C. for 10 min. […] Determination is carried out 3 dilutions (10^−7, 10^−6, 10^−5 molar). The PGE2 concentrations are quantified by means of ELISA (see Mitchell J. A. et al. Proc. Nat. Acad. Sci 90: 11693-11697 (1993)).

5-lipoxygenase (5-LO) = biological target: T2, 5-lipoxygenase (5-LO) (Homo sapiens, UniProt P09917); test: Inhibition of 5-lipoxygenase: LTB4 formation in human granulocytes stimulated with calcium ionophore A 23187, ELISA; assay type: cell-based; conditions: A 23187, LTB4 ELISA
T2 construct: The source used for the 5-lipoxygenase is human granulocytes; endogenous in cells; host or cells: human granulocytes isolated from heparinised blood
T2 sequence (P09917 1-674): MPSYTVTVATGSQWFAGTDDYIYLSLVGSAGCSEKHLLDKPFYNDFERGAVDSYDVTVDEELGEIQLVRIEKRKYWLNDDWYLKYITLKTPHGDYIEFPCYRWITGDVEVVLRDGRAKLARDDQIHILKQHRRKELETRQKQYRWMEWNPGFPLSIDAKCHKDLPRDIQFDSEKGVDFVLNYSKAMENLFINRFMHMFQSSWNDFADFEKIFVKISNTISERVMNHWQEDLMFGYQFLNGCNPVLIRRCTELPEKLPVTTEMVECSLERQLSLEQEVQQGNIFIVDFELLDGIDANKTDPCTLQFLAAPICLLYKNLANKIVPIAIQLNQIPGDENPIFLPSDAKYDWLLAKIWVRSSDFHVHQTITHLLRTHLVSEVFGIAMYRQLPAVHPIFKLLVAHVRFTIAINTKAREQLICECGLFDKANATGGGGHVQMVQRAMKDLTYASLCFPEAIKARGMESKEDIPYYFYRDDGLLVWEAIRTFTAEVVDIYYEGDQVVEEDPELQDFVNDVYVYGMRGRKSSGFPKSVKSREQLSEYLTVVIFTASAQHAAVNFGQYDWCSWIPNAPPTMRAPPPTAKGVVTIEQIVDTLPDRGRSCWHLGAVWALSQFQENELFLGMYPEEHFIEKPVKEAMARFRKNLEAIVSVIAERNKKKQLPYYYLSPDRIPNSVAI
Experimental: Test System for Determining the Inhibition of 5-lipoxygenase (5-LO)
The source used for the 5-lipoxygenase is human granulocytes. By stimulation with calcium ionophore A 23187, LTB4 (leukotriene B4) is formed from endogenous arachidonic acid. The granulocytes are isolated and the enzyme reaction is carried out according to known processes (see Arch. Pharm. Pharm. Med. Chem. 330, 307-312 (1997)).
The blood protected from clotting by heparin is centrifuged on a discontinuous Percoll® gradient and the granulocyte layer is removed by pipette. After lysis of the erythrocytes, the granulocytes are washed a number of times and then adjusted to a specific cell count. The enzyme reaction is then started in the presence or absence of the test substance after addition of Ca^2+ using calcium ionophore A 23187. The synthesis of the leukotrienes is stopped after 1.5 minutes. The samples are centrifuged off and the supernatant is diluted. LTB4 is determined quantitatively by means of ELISA.

TNF-α [1] = test: Inhibition of LPS-stimulated cytokine secretion in human PBMC (TNF-α); assay type: cell-based; conditions: LPS 1 μg/ml, 24 h, read-out: TNFα, PBMC (IC50 values)
Experimental: (§1) Test System for Determining the Inhibition of LPS-stimulated Cytokine Secretion (TNF-α, IL-1β)
(§2) Human PBMC (peripheral blood mononuclear cells) are preincubated with test substance for 5 min at 37° C., then stimulated with LPS (1 μg/ml) for 24 h at 37° C. The cytokines TNF-α, IL-1β, IL-6 and IL-8 are Determined by means of ELISA (see Blood 75, 40-47 (1990)).

Cyclooxygenase-1 (COX-1) = biological target: T3, Cyclooxygenase-1 (COX-1) (Homo sapiens, UniProt P23219); test: Inhibition of cyclooxygenase-1: prostaglandin E2 formed by human platelets after calcium ionophore, ELISA; assay type: cell-based; conditions: PGE2 ELISA
T3 construct: endogenous in cells; host or cells: human platelets
Experimental: Test System for Determining the Inhibition of Cyclooxygenase-1 (COX-1)
In this test system, the amount of prostaglandin E2 formed by human platelets after addition of calcium ionophore is determined by means of ELISA. The platelets are obtained here after centrifugation on a discontinuous Percoll® gradient. The enzyme reaction and the determination of the metabolites formed are in principle carried out as in the determination of the inhibition of 5-lipoxygenase. Differences exist with respect to the incubation time. Furthermore, the addition of a thromboxane synthase inhibitor is necessary (see Arch. Pharm. Pharm. Med. Chem. 330, 307-312 (1997)).

IL-1β [2] = test: Inhibition of LPS-stimulated cytokine secretion in human PBMC (IL-1β); assay type: cell-based; conditions: LPS 1 μg/ml, 24 h
Experimental: as §1, §2

IL-1β [3] = test: Inhibition of LPS-stimulated cytokine secretion in whole blood (IL-1β); assay type: cell-based; conditions: human whole blood, LPS 1 μg/ml, 4 h; read-out: IL-1β, Whole blood method (IC50 values)
Experimental: (§3) Test System for Determining the Inhibition of LPS-stimulated Cytokine Secretion (TNF-α, IL-1β) in Whole Blood
(§4) Fresh, human whole blood from healthy donors is preincubated with test substance for 25 min at 37° C. The cells are stimulated with LPS (1 μg/ml) for 4 h at 37° C. In the plasma supernatant which is isolated by centrifugation, the cytokines TNF-α, IL-1β, IL-6 and IL-8 are quantified by means of ELISA (see Inflamm. Res. 44, 269-274 (1995)).

TNF-α [4] = test: Inhibition of LPS-stimulated cytokine secretion in whole blood (TNF-α); assay type: cell-based; conditions: human whole blood, LPS 1 μg/ml, 4 h; read-out: TNFα, Whole blood method (IC50 values)
Experimental: as §3, §4

T3 sequence (P23219 24-599): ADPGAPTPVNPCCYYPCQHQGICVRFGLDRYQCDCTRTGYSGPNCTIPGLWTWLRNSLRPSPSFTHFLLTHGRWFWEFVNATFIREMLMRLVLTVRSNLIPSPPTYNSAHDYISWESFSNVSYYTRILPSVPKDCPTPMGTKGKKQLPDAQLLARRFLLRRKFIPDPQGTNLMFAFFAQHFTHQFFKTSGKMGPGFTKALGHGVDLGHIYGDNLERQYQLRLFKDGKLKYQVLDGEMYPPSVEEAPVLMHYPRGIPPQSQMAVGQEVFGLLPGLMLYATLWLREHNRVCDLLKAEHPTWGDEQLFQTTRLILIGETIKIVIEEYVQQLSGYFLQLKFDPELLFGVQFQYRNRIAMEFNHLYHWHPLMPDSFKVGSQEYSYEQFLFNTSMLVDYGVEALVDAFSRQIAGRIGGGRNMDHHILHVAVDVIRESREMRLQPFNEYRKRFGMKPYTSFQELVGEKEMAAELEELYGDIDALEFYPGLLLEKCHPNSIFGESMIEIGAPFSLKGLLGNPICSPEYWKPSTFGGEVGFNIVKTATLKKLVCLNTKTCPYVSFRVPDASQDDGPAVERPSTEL

Row | Structure (SMILES) | IC50 (Cyclooxygenase-2 (COX-2)) | IC50 (5-lipoxygenase (5-LO)) | IC50 (TNF-α [1]) | IC50 (Cyclooxygenase-1 (COX-1)) | IC50 (IL-1β [2]) | IC50 (IL-1β [3]) | IC50 (TNF-α [4])
1 | NS(=O)(=O)c1ccc(CSc2nc(-c3ccncc3)c(-c3ccc(F)cc3)[nH]2)cc1 [Example 5, 2-[(4-Aminosulfonylphenyl)methylthio]-5-(4-fluorophenyl)-4-(4-pyridyl)imidazole] | 10 µM | 2.8 µM | 3.1 µM | 0.038 µM | 18 µM |  | 
2 | CSc1ccc(CCSc2nc(-c3ccncc3)c(-c3ccc(F)cc3)[nH]2)cc1 [Example 6, 2-[2-(4-Methylthiophenyl)ethylthio]-5-(4-fluorophenyl)4-(4-pyridyl)imidazole] | 3 µM | < 0.01 µM | 6 µM | 6.5 µM | 58 µM |  | 
3 | CS(=O)(=O)c1ccc(CCSc2nc(-c3ccncc3)c(-c3ccc(F)cc3)[nH]2)cc1 [Example 7, 5-(4-Fluorophenyl)-2-[2-(4-methylsulfonylphenyl)ethylthio]-4-(4-pyridyl)imidazole] |  |  | 14 µM |  | 21 µM |  | 
4 | C[S+]([O-])c1ccc(CSc2nc(-c3ccncc3)c(-c3ccc(F)cc3)[nH]2)cc1 (stereo not shown) [Example 2, 5-(4-Fluorophenyl)-2-[(4-methylsulfinyl)benzylthio]-4-(4-pyridyl)imidazole] | 6.3 µM | 10 µM | 6.8 µM |  | 2.3 µM | 2.9 µM | 16 µM
5 | CS(=O)(=O)c1ccc(-c2nc(-c3ccc(F)cc3)c(-c3ccncc3)[nH]2)cc1 [Reference B, reference compound] |  |  |  |  | 7.5 µM |  | 
6 | C[S+]([O-])c1cccc(CSc2nc(-c3ccncc3)c(-c3ccc(F)cc3)[nH]2)c1 (stereo not shown) [Example 9, 5-(4-Fluorophenyl)-2-[(3-methylsulfinylphenyl)methylthio]-4-(4-pyridyl)-1H-imidazole] |  |  |  |  |  | 1.9 µM | 24 µM
7 | C[S+]([O-])c1ccccc1CSc1nc(-c2ccncc2)c(-c2ccc(F)cc2)[nH]1 (stereo not shown) [Example 10, 5-(4-Fluorophenyl)-2-[(2-methylsulfinylphenyl)methylthio]-4-(4-pyridyl)-1H-imidazole] |  |  |  |  |  | 4 µM | 48 µM
8 | CSc1ccc(CSc2nc(-c3ccncc3)c(-c3ccc(F)cc3)[nH]2)cc1 [Example 1, 5-(4-Fluorophenyl)-2-[(4-methylthio)benzylthio]-4-(4-pyridyl)imidazole] | 6.1 µM | 0.065 µM | 10 µM | 3.4 µM | > 100 µM | 30 µM | 30 µM
9 | C[S+]([O-])c1ccc(O)c(CSc2nc(-c3ccncc3)c(-c3ccc(F)cc3)[nH]2)c1 (stereo not shown) [Example 16, 2-[(2-Hydroxy-5-methylsulfinylphenyl)methylthio]-5-(4-fluorophenyl)-4-(4-pyridyl)-1H-imidazole] |  |  | 4.2 µM |  | 0.64 µM | 13 µM | 76 µM
10 | C[S+]([O-])c1cc(CSc2nc(-c3ccncc3)c(-c3ccc(F)cc3)[nH]2)ccc1O (stereo not shown) [Example 12, 5-(4-Fluorophenyl)-2-[(4-hydroxy-3-methylsulfinylphenyl)methylthio]-4-(4-pyridyl)-1H-imidazole] |  |  |  |  |  | 12.1 µM | 9 µM
11 | NS(=O)(=O)c1ccc(CCSc2nc(-c3ccncc3)c(-c3ccc(F)cc3)[nH]2)cc1 [Example 4, 2-[2-(4-Aminosulfonylphenyl)ethylthio]-5-(4-fluorophenyl)-4-(4-pyridyl)imidazole] | 7 µM | 0.085 µM | 3.3 µM | 2.2 µM | 9.3 µM |  | 
12 | CS(=O)(=O)c1ccc(CSc2nc(-c3ccncc3)c(-c3ccc(F)cc3)[nH]2)cc1 [Example 3, 5-(4-Fluorophenyl)-2-[(4-methylsulfonyl)benzylthio]-4-(4-pyridyl)imidazole] |  | 0.8 µM | 4 µM |  | > 100 µM | 1.2 µM | 19 µM

Source: US6432988B1, “2-arylalkylthio -imidazoles, 2-arylalkenyl -thio -imidazoles and 2-arylalkinyl -thio -imidazoles as anti -inflammatory substances and substances inhibiting the release of cytokine” (Merckle GmbH, priority 1998, dated 2002)
